Assay results published in patent US9688710B2, “Inhibitors of sodium glucose cotransporter 1” (LEXICON PHARMACEUTICALS, INC., priority 2012, dated 2017).

Columns and labels:
[1] = molecular target: Human sodium/glucose co-transporter type 2 (SGLT2) (Homo sapiens (Human), UniProt P31639); assay: In vitro human SGLT2 inhibition assay (14C-AMG uptake); assay type: cell-based; details: HEK293 cells expressing human HA-SGLT2, 14C-AMG uptake
Outline: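 HEK293 cells stably expressing HA-tagged human SGLT2, seeded overnight, washed into Na+-containing HEPES/Tris uptake buffer with 1 mg/mL BSA, pH 7.3. Compound added, then 14C-AMG (100 nCi); 1-2 h at 37 °C, 5% CO2. Washed cells counted by scintillation for 14C-AMG uptake.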

[2] = molecular target: Human sodium/glucose co-transporter type 1 (SGLT1) (Homo sapiens (Human), UniProt P13866); assay: In vitro human SGLT1 inhibition assay (14C-AMG uptake); assay type: cell-based; parameters: key to SGLT1 (human SGLT1 IC50): ***: a value less than 0.01 μM; **: a value less than 0.1 μM; *: a value less than 1 μM; —: a value not measured or exceeding μM; details: HEK293 cells expressing human HA-SGLT1, 14C-AMG uptake
Outline: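 HEK293 cells stably expressing human HA-tagged SGLT1 (30,000/well, overnight) were washed into Na+-containing uptake buffer (140 mM NaCl, HEPES/Tris, 1 mg/mL BSA, pH 7.3). Cells then received compound plus 100 nCi 14C-AMG for 1–2 h at 37 °C; after washing, AMG uptake was quantified by scintillation counting.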

Human sodium/glucose co-transporter type 2 (SGLT2), sequence (P31639 whole entry): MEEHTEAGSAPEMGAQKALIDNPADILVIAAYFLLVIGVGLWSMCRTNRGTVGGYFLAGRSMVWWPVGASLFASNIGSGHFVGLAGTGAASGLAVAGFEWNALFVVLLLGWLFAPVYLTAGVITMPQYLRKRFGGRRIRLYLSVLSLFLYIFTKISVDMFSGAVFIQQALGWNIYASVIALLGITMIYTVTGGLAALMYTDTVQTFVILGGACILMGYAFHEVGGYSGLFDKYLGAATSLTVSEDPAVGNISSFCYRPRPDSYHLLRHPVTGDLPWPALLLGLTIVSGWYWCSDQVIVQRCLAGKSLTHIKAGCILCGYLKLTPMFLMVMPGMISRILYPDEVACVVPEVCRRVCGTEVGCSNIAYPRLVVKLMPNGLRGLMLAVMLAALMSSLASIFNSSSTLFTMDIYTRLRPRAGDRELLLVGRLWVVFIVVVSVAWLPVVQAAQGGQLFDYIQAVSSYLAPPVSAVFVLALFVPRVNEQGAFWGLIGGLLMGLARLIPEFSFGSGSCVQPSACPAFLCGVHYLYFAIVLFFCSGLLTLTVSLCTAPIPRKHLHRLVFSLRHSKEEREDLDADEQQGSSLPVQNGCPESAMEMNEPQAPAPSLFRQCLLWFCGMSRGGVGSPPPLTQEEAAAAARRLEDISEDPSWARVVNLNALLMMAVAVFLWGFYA
Human sodium/glucose co-transporter type 1 (SGLT1), sequence (P13866 whole entry): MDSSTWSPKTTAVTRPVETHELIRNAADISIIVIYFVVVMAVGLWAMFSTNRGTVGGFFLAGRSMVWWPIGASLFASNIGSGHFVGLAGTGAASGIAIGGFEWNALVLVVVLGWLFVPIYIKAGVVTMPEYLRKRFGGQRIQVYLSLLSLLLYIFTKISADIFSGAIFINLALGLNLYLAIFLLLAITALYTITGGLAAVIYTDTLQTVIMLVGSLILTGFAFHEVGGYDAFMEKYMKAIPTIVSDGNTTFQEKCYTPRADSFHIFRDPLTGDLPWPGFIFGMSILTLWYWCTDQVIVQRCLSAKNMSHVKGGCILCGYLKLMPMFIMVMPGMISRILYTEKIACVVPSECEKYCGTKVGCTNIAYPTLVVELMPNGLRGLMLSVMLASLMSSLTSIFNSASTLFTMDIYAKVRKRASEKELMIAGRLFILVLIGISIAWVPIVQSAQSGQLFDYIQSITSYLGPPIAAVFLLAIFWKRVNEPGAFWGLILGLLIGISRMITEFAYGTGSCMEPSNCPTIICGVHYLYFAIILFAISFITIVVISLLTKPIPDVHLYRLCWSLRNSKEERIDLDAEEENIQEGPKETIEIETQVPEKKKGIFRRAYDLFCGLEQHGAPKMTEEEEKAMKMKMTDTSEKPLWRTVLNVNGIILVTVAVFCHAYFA

SMILES	IC50 [1]	IC50 [2]	SGLT1 (human SGLT1 IC50) [2]
CS[C@H]1OC(c2ccc(C)c(Cc3ccc(OCCNC(=O)NCC(C)(C)C(N)=O)cc3)c2)[C@H](O)[C@@H](O)[C@@H]1O (stereo partly drawn) [2,2-dimethyl-3-(3-(2-(4-(2-methyl-5-((3R,4R,5S,6R)-3,4,5-trihydroxy-6-(methylthio)tetrahydro-2H-pyran-2-yl)benzyl)phenoxy)ethyl)ureido)propanamide]	< 0.01 µM	< 0.01 µM	
CS[C@H]1O[C@@H](c2ccc(C)c(Cc3ccc(CCCCNC(=O)N4CCN(C)CC4)cc3)c2)[C@H](O)[C@@H](O)[C@@H]1O [4-methyl-N-(4-(4-(2-methyl-5-((2S,3R,4R,5S,6R)-3,4,5-trihydroxy-6-(methylthio)tetrahydro-2H-pyran-2-yl)benzyl)phenyl)butyl)piperazine-1-carboxamide]	< 0.01 µM	< 0.1 µM	
CS[C@H]1O[C@@H](c2ccc(C)c(Cc3ccc(OCCNC4(C(N)=O)CCCC4)cc3)c2)[C@H](O)[C@@H](O)[C@@H]1O [1-((2-(4-(2-methyl-5-((2S,3R,4R,5S,6R)-3,4,5-trihydroxy-6-(methylthio)tetrahydro-2H-pyran-2-yl)benzyl)phenoxy)ethyl)amino)cyclopentanecarboxamide]	< 0.01 µM	< 0.1 µM	
CS[C@H]1OC(c2ccc(C)c(Cc3ccc(OCCNC(=O)N4CCN(C)CC4)cc3)c2)[C@H](O)[C@@H](O)[C@@H]1O (stereo partly drawn) [4-methyl-N-(2-(4-(2-methyl-5-((3R,4R,5S,6R)-3,4,5-trihydroxy-6-(methylthio)tetrahydro-2H-pyran-2-yl)benzyl)phenoxy)ethyl)piperazine-1-carboxamide]	< 0.01 µM	< 0.01 µM	
CCNC(=O)CCCOc1ccc(Cc2cc([C@@H]3O[C@H](SC)[C@@H](O)[C@H](O)[C@H]3O)ccc2Cl)cc1 [4-(4-(2-chloro-5-((2S,3R,4R,5S,6R)-3,4,5-trihydroxy-6-(methylthio)tetrahydro-2H-pyran-2-yl)benzyl)phenoxy)-N-ethylbutanamide]	< 0.01 µM	< 0.1 µM	
CS[C@H]1O[C@@H](c2ccc(C)c(Cc3ccc(CCCC(=O)NC(C)(C)C(=O)O)cc3)c2)[C@H](O)[C@@H](O)[C@@H]1O [2-methyl-2-(4-(4-(2-methyl-5-((2S,3R,4R,5S,6R)-3,4,5-trihydroxy-6-(methylthio)tetrahydro-2H-pyran-2-yl)benzyl)phenyl)butanamido)propanoic acid]	< 0.01 µM	< 0.1 µM	
CS[C@H]1O[C@@H](c2ccc(C)c(Cc3ccc(OCCCC(=O)O)cc3)c2)[C@H](O)[C@@H](O)[C@@H]1O [4-(4-(2-methyl-5-((2S,3R,4R,5S,6R)-3,4,5-trihydroxy-6-(methylthio)tetrahydro-2H-pyran-2-yl)benzyl)phenoxy)butanoic acid]	< 0.1 µM		—
CS[C@H]1O[C@@H](c2ccc(Cl)c(Cc3ccc(OCCNC(=N)N)cc3)c2)[C@H](O)[C@@H](O)[C@@H]1O [1-(2-(4-(2-chloro-5-((2S,3R,4R,5S,6R)-3,4,5-trihydroxy-6-(methylthio)tetrahydro-2H-pyran-2-yl)benzyl)phenoxy)ethyl)guanidine]	< 0.01 µM	< 0.01 µM	
CS[C@H]1O[C@@H](c2ccc(Cl)c(Cc3ccc(OCCCC(=O)NC4CCCCC4N4CCOCC4)cc3)c2)[C@H](O)[C@@H](O)[C@@H]1O (stereo partly drawn) [4-(4-(2-chloro-5-((2S,3R,4R,5S,6R)-3,4,5-trihydroxy-6-(methylthio)tetrahydro-2H-pyran-2-yl)benzyl)phenoxy)-N-(2-morpholinocyclohexyl)butanamide]	< 0.01 µM	< 0.1 µM	
CS[C@H]1O[C@@H](c2ccc(C)c(Cc3ccc(OCCCC(N)=O)cc3)c2)[C@H](O)[C@@H](O)[C@@H]1O [4-(4-(2-methyl-5-((2S,3R,4R,5S,6R)-3,4,5-trihydroxy-6-(methylthio)tetrahydro-2H-pyran-2-yl)benzyl)phenoxy)butanamide]	< 0.01 µM	< 0.1 µM	

Further lines, results first:

IC50 [1]	IC50 [2]	SGLT1 (human SGLT1 IC50) [2]	SMILES
< 0.01 µM	< 0.01 µM		CS[C@H]1O[C@@H](c2ccc(C)c(Cc3ccc(OCCCC(=O)NCC(C)(C)C(=O)N4CCN(C)CC4)cc3)c2)[C@H](O)[C@@H](O)[C@@H]1O [N-(2,2-dimethyl-3-(4-methylpiperazin-1-yl)-3-oxopropyl)-4-(4-(2-methyl-5-((2S,3R,4R,5S,6R)-3,4,5-trihydroxy-6-(methylthio)tetrahydro-2H-pyran-2-yl)benzyl)phenoxy)butanamide]
< 0.1 µM	< 0.1 µM		CS[C@H]1O[C@@H](c2ccc(C)c(Cc3ccc(OCCCC(=O)NC(C)(CO)CO)cc3)c2)[C@H](O)[C@@H](O)[C@@H]1O [N-(1,3-dihydroxy-2-methylpropan-2-yl)-4-(4-(2-methyl-5-((2S,3R,4R,5S,6R)-3,4,5-trihydroxy-6-(methylthio)tetrahydro-2H-pyran-2-yl)benzyl)phenoxy)butanamide]
< 0.01 µM	< 0.01 µM		CS[C@H]1O[C@@H](c2ccc(Cl)c(Cc3ccc(OCCCC(=O)N(C)C(C)(C)C(N)=O)cc3)c2)[C@H](O)[C@@H](O)[C@@H]1O [N-(1-amino-2-methyl-1-oxopropan-2-yl)-4-(4-(2-chloro-5-((2S,3R,4R,5S,6R)-3,4,5-trihydroxy-6-(methylthio)tetrahydro-2H-pyran-2-yl)benzyl)phenoxy)-N-methylbutanamide]
< 0.01 µM	< 0.01 µM		CS[C@H]1O[C@@H](c2ccc(C)c(Cc3ccc(CCCC(=O)NC(C)(C)C(=O)NC4CCN(C)CC4)cc3)c2)[C@H](O)[C@@H](O)[C@@H]1O [N-(2-methyl-1-((1-methylpiperidin-4-yl)amino)-1-oxopropan-2-yl)-4-(4-(2-methyl-5-((2S,3R,4R,5S,6R)-3,4,5-trihydroxy-6-(methylthio)tetrahydro-2H-pyran-2-yl)benzyl)phenyl)butanamide]
< 0.01 µM	< 0.1 µM		COCCOCCOc1ccc(Cc2cc([C@@H]3O[C@H](SC)[C@@H](O)[C@H](O)[C@H]3O)ccc2Cl)cc1 [(2S,3R,4R,5S,6R)-2-(4-chloro-3-(4-(2-(2-methoxyethoxy)ethoxy)benzyl)phenyl)-6-(methylthio)tetrahydro-2H-pyran-3,4,5-triol]
< 0.01 µM	< 0.1 µM		CS[C@H]1O[C@@H](c2ccc(C)c(Cc3ccc(OCCCC(=O)N[C@@H](CC(N)=O)C(N)=O)cc3)c2)[C@H](O)[C@@H](O)[C@@H]1O [(S)-2-(4-(4-(2-methyl-5-((2S,3R,4R,5S,6R)-3,4,5-trihydroxy-6-(methylthio)tetrahydro-2H-pyran-2-yl)benzyl)phenoxy)butanamido)succinamide]
< 0.01 µM	< 0.01 µM		CS[C@H]1O[C@@H](c2ccc(C)c(Cc3ccc(OCCCC(=O)NC(C)(C)C(=O)N4CCOCC4)cc3)c2)[C@H](O)[C@@H](O)[C@@H]1O [N-(2-methyl-1-morpholino-1-oxopropan-2-yl)-4-(4-(2-methyl-5-((2S,3R,4R,5S,6R)-3,4,5-trihydroxy-6-(methylthio)tetrahydro-2H-pyran-2-yl)benzyl)phenoxy)butanamide]
< 0.01 µM	< 0.01 µM		CS[C@H]1O[C@@H](c2ccc(C)c(Cc3ccc(OCCCNCC(C)(C)CN(C)C)cc3)c2)[C@H](O)[C@@H](O)[C@@H]1O [(2S,3R,4R,5S,6R)-2-(3-(4-(3-((3-(dimethylamino)-2,2-dimethylpropyl)amino)propoxy)benzyl)-4-methylphenyl)-6-(methylthio)tetrahydro-2H-pyran-3,4,5-triol]
< 0.01 µM	< 0.01 µM		CS[C@H]1O[C@@H](c2ccc(C)c(Cc3ccc(OCCCC(=O)NC(C)(C)C(N)=O)cc3)c2)[C@H](O)[C@@H](O)[C@@H]1O [N-(1-amino-2-methyl-1-oxopropan-2-yl)-4-(4-(2-methyl-5-((2S,3R,4R,5S,6R)-3,4,5-trihydroxy-6-(methylthio)tetrahydro-2H-pyran-2-yl)benzyl)phenoxy)butanamide]
< 0.01 µM	< 0.01 µM		CS[C@H]1O[C@@H](c2ccc(C)c(Cc3ccc(CCCC(=O)NC(C)(C)C(=O)N4CCN(CCO)CC4)cc3)c2)[C@H](O)[C@@H](O)[C@@H]1O [N-(1-(4-(2-hydroxyethyl)piperazin-1-yl)-2-methyl-1-oxopropan-2-yl)-4-(4-(2-methyl-5-((2S,3R,4R,5S,6R)-3,4,5-trihydroxy-6-(methylthio)tetrahydro-2H-pyran-2-yl)benzyl)phenyl)butanamide]
< 0.1 µM		—	CS[C@H]1O[C@@H](c2ccc(Cl)c(Cc3ccc(OCC[C@H](N)C(=O)O)cc3)c2)[C@H](O)[C@@H](O)[C@@H]1O [(S)-2-amino-4-(4-(2-chloro-5-((2S,3R,4R,5S,6R)-3,4,5-trihydroxy-6-(methylthio)tetrahydro-2H-pyran-2-yl)benzyl)phenoxy)butanoic acid]
< 0.01 µM	< 0.01 µM		CS[C@H]1O[C@@H](c2ccc(C)c(Cc3ccc(CCCC(=O)NCCCC[C@H](N)C(=O)O)cc3)c2)[C@H](O)[C@@H](O)[C@@H]1O [(S)-2-amino-6-(4-(4-(2-methyl-5-((2S,3R,4R,5S,6R)-3,4,5-trihydroxy-6-(methylthio)tetrahydro-2H-pyran-2-yl)benzyl)phenyl)butanamido)hexanoic acid]
< 0.01 µM	< 0.1 µM		CS[C@H]1O[C@@H](c2ccc(C)c(Cc3ccc(OCCCC(=O)N[C@@H](CO)C(N)=O)cc3)c2)[C@H](O)[C@@H](O)[C@@H]1O [N-((S)-1-amino-3-hydroxy-1-oxopropan-2-yl)-4-(4-(2-methyl-5-((2S,3R,4R,5S,6R)-3,4,5-trihydroxy-6-(methylthio)tetrahydro-2H-pyran-2-yl)benzyl)phenoxy)butanamide]
